System: gene expression in etiolated eto1-4 seedlings
Experiment: Transcriptional profiling (ATH1 GeneChip microarray) of etiolated eto1-4 seedlings
Type: in vivo, Arabidopsis thaliana
Experimental: For chemical treatments, seeds were sown on 0.5×MS agar medium supplemented with 10 μM chemicals (AVG, compounds 9393, 9370, and 7303) or DMSO (as control). Arabidopsis seeds were stratified in the dark at 4° C. for 4 days, then germinated in the dark for 3 days at 22° C. Approximately 2,000 etiolated seedlings of the wild type or eto1-4 were used to collect tissues for preparation of total RNA in each microarray experiment with Arabidopsis ATH1 GeneChip (Affymetrix). Extraction of RNA followed an established protocol (Chang, et al. (1993) Plant Mol. Biol. Rep. 11, 113-117). Total RNA (10 μg) was used to prepare biotinylated cRNA for hybridization to ATH1 GeneChip in the experiments disclosed herein. Experiments were repeated by 2 independent biological duplicates, and candidate genes present in both experiments were selected for further analysis. The MASS method was used for data analysis and normalization by all sample medium. Candidate genes were selected by the following criteria. First, genes with 1.5-fold differential expression between the wild type and eto1-4 were selected as the master gene pool, which was then used for comparison in treatments with AVG and individual exemplary compounds. Data were presented in hierarchical clustering and Venn diagram format. Agilent GeneSpring GX and Bioconductor software were used to analyze the expression profile data. Gene Ontology descriptions were generated by GeneSpring GX and further referred to the TAR GO database. Raw data are available in the GEO database (http://www.ncbi.nlm.nih.gov/geo) with Accession no. GSE20897.
The filtered and normalized expression data set from 22810 probes on the ATH1 Genechip was used for hierarchical clustering of gene expression profiles for comparison between AVG and the exemplary invention compounds in eto1-4. It was identified that 1,446 genes show at least 1.5-fold difference in expression between the WT and eto1-4 and used them as the master gene pool for clustering analysis (FIG. 7A). […] These genes likely contribute to the etiolated phenotype of eto1-4 by responding to elevated endogenous ethylene. To determine whether the exemplary compounds have specific r overlapping functions with AVG to suppress the eto1-4 phenotype, genes that are regulated by individual exemplary invention compounds and AVG for Venn diagram analysis were clustered (FIG. 7B). More than 63% of genes (356/561 for compound 9393; 389/561 for compound 9370; 399/561 for compound 7303; FIG. 7B) with expression associated with AVG were co-regulated by the exemplary invention compounds, which indicates an overlap function in suppression of the ethylene phenotype in eto1-4. […] Next genes co-regulated by all of the exemplary invention compounds and AVG were examined by performing a clustering analysis using the co-regulated genes identified in FIG. 7B: 356 (compound 9393 vs AVG), 389 (compound 9370 vs AVG) and 399 genes (compound 7303 vs AVG). It was uncovered that 276 genes were co-regulated by all of the exemplary invention compounds and AVG (FIG. 7C and Table 2). On the basis of GO descriptions generated by Gene Spring GX and TAIR database, the 276 genes were divided into subgroups related to their biological functions (Table 2). […] In addition, stress- and pathogenesis-related genes were among the co-regulated genes, possibly because ethylene is involved in both biotic and abiotic stresses.
Genes (1446 non-redundant loci) were selected by 1.5-fold differential expression between eto1-4 and WT as the master pool for analysis. These genes were used for comparison between chemical treatments by AVG and the exemplary invention compounds. The finalized 276 genes that are co-regulated by AVG and all of the exemplary invention compounds are shown. Locus ID also present in Nemhauser et al. (Nemhauser, et al. (2006) Cell 126, 467-475).

[1] = of 1446 genes differentially expressed between WT and eto1-4, 10 μM
[2] = ratio eto1-4 treated to eto1-4 (no treatment)

CC1(C)CC(=O)c2cnc(NC3CCCC3)nc2C1 [Compound 9393]
number of genes co-regulated with AVG (of 561 genes associated with AVG, 10 μM): 356 genes
number of genes regulated (expression reverted close to WT) [1]: 629 genes
percentage of genes regulated (expression reverted close to WT) [1]: 43.5%
number of genes regulated specifically, not related to AVG treatment (of all genes regulated by the compound (629, 728, 650), 10 μM): 273 genes
Signal Fold Change AT1G03457, unknown biological function [2]: 2.24
Signal Fold Change AT1G03660, unknown biological function [2]: 1.84
Signal Fold Change AT1G05010 ACC oxidase [2]: 0.28
Signal Fold Change AT1G05760 jacalin lectin protein [2]: 2.69
Signal Fold Change AT1G06720 expressed protein [2]: 1.15
Signal Fold Change AT1G07280, unknown biological function [2]: 0.44
Signal Fold Change AT1G07560 leucine-rich repeat protein kinase [2]: 2.23
Signal Fold Change AT1G08650 phosphoenolpyruvate carboxylase kinase [2]: 1.96
Signal Fold Change AT1G08990 glycogenin glucosyltransferase [2]: 1.61
Signal Fold Change AT1G09530 phytochrome interacting factor 3 [2]: 0.35
Signal Fold Change AT1G10760 starch excess protein (SEX1) [2]: 0.46
Signal Fold Change AT1G13430, response to cytokinin stimulus, sulfotransferase protein [2]: 0.38
Signal Fold Change AT1G14540 anionic peroxidase [2]: 0.46
Signal Fold Change AT1G15380 lactoylglutathione lyase [2]: 1.96
Signal Fold Change AT1G17970, unknown biological function [2]: 2.17
Signal Fold Change AT1G18880 proton-dependent oligopeptide transport (POT) protein [2]: 2.00
Signal Fold Change AT1G20190, cell wall organization and biogenesis, expansin (EXP11) [2]: 0.43
Signal Fold Change AT1G22740 Ras-related protein (RAB7) [2]: 2.34
Signal Fold Change AT1G23060, unknown biological function [2]: 0.40
Signal Fold Change AT1G26930, unknown biological function [2]: 0.50
Signal Fold Change AT1G27380 p21-rho-binding domain-containing protein [2]: 2.10
Signal Fold Change AT1G29520, unknown biological function [2]: 1.83
Signal Fold Change AT1G30750, unknown biological function [2]: 2.23
Signal Fold Change AT1G31710 copper amine oxidase [2]: 3.17
Signal Fold Change AT1G32410 vacuolar protein sorting 55 protein [2]: 1.62
Signal Fold Change AT1G32560 late embryogenesis abundant group 1 domain-containing protein [2]: 1.35
Signal Fold Change AT1G33470, unknown biological function [2]: 2.32
Signal Fold Change AT1G33790, unknown biological function [2]: 0.20
Signal Fold Change AT1G34040, unknown biological function [2]: 1.69
Signal Fold Change AT1G35350, unknown biological function [2]: 3.85
Signal Fold Change AT1G35612, unknown biological function [2]: 3.38
Signal Fold Change AT1G42470, unknown biological function [2]: 4.11
Signal Fold Change AT1G44800, unknown biological function [2]: 1.86
Signal Fold Change AT1G44830 AP2-containing transcription factor [2]: 0.34
Signal Fold Change AT1G48480 leucine-rich repeat trans-membrane protein kinase [2]: 2.65
Signal Fold Change AT1G49660 expressed protein [2]: 0.38
Signal Fold Change AT1G50560 cytochrome P450 [2]: 1.77
Signal Fold Change AT1G52830 auxin-responsive protein [2]: 3.44
Signal Fold Change AT1G56010 transcription activator NAC1 [2]: 2.29
Signal Fold Change AT1G56020, unknown biological function [2]: 0.60
Signal Fold Change AT1G58070, unknown biological function [2]: 2.13
Signal Fold Change AT1G59590, unknown biological function [2]: 2.57
Signal Fold Change AT1G59740 proton-dependent oligopeptide transport (POT) protein [2]: 0.46
Signal Fold Change AT1G62290 aspartyl protease protein [2]: 0.32
Signal Fold Change AT1G62510 lipid transfer protein [2]: 1.63
Signal Fold Change AT1G62620, unknown biological function [2]: 2.65
Signal Fold Change AT1G64200 V-ATPase E subunit [2]: 2.10
Signal Fold Change AT1G65510, unknown biological function [2]: 2.13
Signal Fold Change AT1G65920, unknown biological function [2]: 0.37
Signal Fold Change AT1G66230 myb transcription factor (MYB20) [2]: 3.04
Signal Fold Change AT1G67030 zinc finger (C2H2 type) protein [2]: 6.01
Signal Fold Change AT1G68230, unknown biological function [2]: 2.42
Signal Fold Change AT1G68520 zinc finger (B-box type) protein [2]: 2.45
Signal Fold Change AT1G69570 Dof-type zinc finger-containing protein [2]: 3.88
Signal Fold Change AT1G70210 cyclin delta-1 [2]: 3.05
Signal Fold Change AT1G70850 Bet v I allergen protein [2]: 7.24
Signal Fold Change AT1G70890 major latex protein [2]: 5.37
Signal Fold Change AT1G71030 myb transcription factor (MYB2) [2]: 4.86
Signal Fold Change AT1G71740, unknown biological function [2]: 2.19
Signal Fold Change AT1G72230 plastocyanin like protein [2]: 2.45
Signal Fold Change AT1G73220 sugar transporter protein [2]: 2.95
Signal Fold Change AT1G73300 serine carboxypeptidase S10 protein [2]: 1.94
Signal Fold Change AT1G73310 serine carboxypeptidase S10 protein [2]: 2.66
Signal Fold Change AT1G73330 protease inhibitor [2]: 2.84
Signal Fold Change AT1G73590 auxin efflux carrier protein [2]: 2.02
Signal Fold Change AT1G73640, small GTPase mediated signal transduction, Ras-related GTP-binding protein [2]: 1.94
Signal Fold Change AT1G73830 bHLH protein [2]: 0.28
Signal Fold Change AT1G75500, unknown biological function [2]: 3.12
Signal Fold Change AT1G76220, unknown biological function [2]: 3.40
Signal Fold Change AT1G76500, photomorphogenesis, DNA-binding protein [2]: 0.39
Signal Fold Change AT1G76540 cell division control protein [2]: 2.16
Signal Fold Change AT1G76790, unknown biological function [2]: 2.90
Signal Fold Change AT1G78240 dehydration-responsive protein [2]: 0.49
Signal Fold Change AT1G80380 phosphoribulokinase [2]: 2.17
Signal Fold Change AT2G01910, microtubule nucleation, microtubule associated protein (MAP65/ASE1) protein [2]: 2.21
Signal Fold Change AT2G02820 myb transcription factor (MYB88) [2]: 3.34
Signal Fold Change AT2G02850 plantacyanin [2]: 0.27
Signal Fold Change AT2G16580 auxin-responsive protein [2]: 2.33
Signal Fold Change AT2G16990, unknown biological function [2]: 2.49
Signal Fold Change AT2G19590 ACC oxidase [2]: 0.29
Signal Fold Change AT2G19970, unknown biological function [2]: 2.19
Signal Fold Change AT2G20080, unknown biological function [2]: 4.77
Signal Fold Change AT2G20670, unknown biological function [2]: 2.36
Signal Fold Change AT2G21820, unknown biological function [2]: 1.08
Signal Fold Change AT2G21880 Ras-related GTP-binding protein [2]: 3.83
Signal Fold Change AT2G22860 phytosulfokines 2 (PSK2) [2]: 2.20
Signal Fold Change AT2G24150 expressed protein (response to hormone stimulus) [2]: 2.23
Signal Fold Change AT2G25900 zinc finger (CCCH-type) protein [2]: 1.27
Signal Fold Change AT2G26070 expressed protein (response to ethylene stimulus) [2]: 0.32
Signal Fold Change AT2G26440 pectinesterase protein [2]: 0.36
Signal Fold Change AT2G26740 epoxide hydrolase [2]: 0.29
Signal Fold Change AT2G27140 heat shock protein [2]: 2.32
Signal Fold Change AT2G27370, unknown biological function [2]: 1.90
Signal Fold Change AT2G28305, unknown biological function [2]: 2.70
Signal Fold Change AT2G28410, unknown biological function [2]: 2.86
Signal Fold Change AT2G29340 short-chain dehydrogenase [2]: 0.47
Signal Fold Change AT2G29440, toxin catabolic process, glutathione S-transferase [2]: 0.31
Signal Fold Change AT2G30360 CBL-interacting protein kinase 11 (CIPK11) [2]: 1.81
Signal Fold Change AT2G33380 calcium-binding RD20 protein [2]: 0.26
Signal Fold Change AT2G33990, unknown biological function [2]: 2.38
Signal Fold Change AT2G34300, unknown biological function [2]: 0.40
Signal Fold Change AT2G34500 cytochrome P450 [2]: 3.82
Signal Fold Change AT2G34510, unknown biological function [2]: 2.66
Signal Fold Change AT2G34700, unknown biological function [2]: 1.10
Signal Fold Change AT2G35300 late embryogenesis abundant group 1 domain-containing protein [2]: 1.93
Signal Fold Change AT2G35710 glycogenin glucosyltransferase [2]: 2.39
Signal Fold Change AT2G36350 protein kinase [2]: 0.54
Signal Fold Change AT2G36410, unknown biological function [2]: 2.46
Signal Fold Change AT2G37130 peroxidase 21 [2]: 1.93
Signal Fold Change AT2G38760, unknown biological function [2]: 2.89
Signal Fold Change AT2G38790, unknown biological function [2]: 1.78
Signal Fold Change AT2G39010 aquaporin [2]: 1.84
Signal Fold Change AT2G39310, unknown biological function [2]: 1.97
Signal Fold Change AT2G39980, unknown biological function [2]: 0.14
Signal Fold Change AT2G40420 amino acid transporter [2]: 1.87
Signal Fold Change AT2G41090, unknown biological function [2]: 0.26
Signal Fold Change AT2G41230, unknown biological function [2]: 0.08
Signal Fold Change AT2G42320, unknown biological function [2]: 0.55
Signal Fold Change AT2G43050 pectinesterase protein [2]: 2.06
Signal Fold Change AT2G43535 trypsin inhibitor [2]: 4.42
Signal Fold Change AT2G44110 seven transmembrane MLO protein [2]: 0.45
Signal Fold Change AT2G44130 kelch repeat containing F-box protein [2]: 3.36
Signal Fold Change AT2G47510 fumarate hydratase [2]: 0.53
Signal Fold Change AT2G47550 pectinesterase protein [2]: 0.39
Signal Fold Change AT2G48030, unknown biological function [2]: 2.18
Signal Fold Change AT3G04010 glycosyl hydrolase [2]: 2.09
Signal Fold Change AT3G05990, signal transduction, phosphodiesterase leucine-rich repeat protein [2]: 2.05
Signal Fold Change AT3G09020, unknown biological function [2]: 2.36
Signal Fold Change AT3G09780 protein kinase [2]: 0.55
Signal Fold Change AT3G10080, unknown biological function [2]: 2.22
Signal Fold Change AT3G10340 phenylalanine ammonia-lyase [2]: 2.17
Signal Fold Change AT3G11550, unknown biological function [2]: 2.20
Signal Fold Change AT3G12030, DNA repair, expressed protein [2]: 1.73
Signal Fold Change AT3G12500 basic endocexemplary inase [2]: 1.85
Signal Fold Change AT3G13980, unknown biological function [2]: 6.83
Signal Fold Change AT3G14370 protein kinase [2]: 0.30

Reference: patent US8481459B2, “Chemical inhibitors of ethylene biosynthesis” (Academia Sinica, priority 2010, dated 2013)
